Experimental data taken from ChEMBL document CHEMBL3774317, “Design and synthesis of novel tamoxifen analogues that avoid CYP2D6 metabolism” (Eur J Med Chem, 2016).

Experiments:
[1] = tested on: NCI-H322M; experiment: Cytotoxicity against human NCI-H322M cells assessed as growth inhibition after 48 hrs by SRB assay; format: functional
[2] = Cytotoxicity against human SNB19 cells assessed as growth inhibition after 48 hrs by SRB assay; format: functional; conditions: SNB-19, 48 h
[3] = tested on: A498; experiment: Cytotoxicity against human A498 cells assessed as growth inhibition after 48 hrs by SRB assay; format: functional; conditions: A498, 48 h
[4] = tested on: HT-29; experiment: Cytotoxicity against human HT-29 cells assessed as growth inhibition after 48 hrs by SRB assay; format: functional; conditions: HT-29, 48 h
[5] = Cytotoxicity against human SF295 cells assessed as growth inhibition after 48 hrs by SRB assay; format: functional; conditions: SF-295, 48 h
[6] = Cytotoxicity against human HOP92 cells assessed as growth inhibition after 48 hrs by SRB assay; format: functional; conditions: HOP-92, 48 h
[7] = tested on: 786-0; experiment: Cytotoxicity against human 786-0 cells assessed as growth inhibition after 48 hrs by SRB assay; format: functional; conditions: 786-0, 48 h
[8] = Cytotoxicity against human DU145 cells assessed as growth inhibition after 48 hrs by SRB assay; format: functional; conditions: DU-145, 48 h
[9] = tested on: MDA-MB-231; experiment: Cytotoxicity against human MDA-MB-231 cells assessed as growth inhibition after 48 hrs by SRB assay; format: functional; conditions: MDA-MB-231, 48 h
[10] = tested on: SR; experiment: Cytotoxicity against human SR cells assessed as growth inhibition after 48 hrs by SRB assay; format: functional
[11] = tested on: NCI-H460; experiment: Cytotoxicity against human NCI-H460 cells assessed as growth inhibition after 48 hrs by SRB assay; format: functional; conditions: NCI-H460, 48 h
[12] = Cytotoxicity against human IGROV1 cells assessed as growth inhibition after 48 hrs by SRB assay; format: functional; conditions: IGROV-1, 48 h
[13] = tested on: MDA-MB-468; experiment: Cytotoxicity against human MDA-MB-468 cells assessed as growth inhibition after 48 hrs by SRB assay; format: functional; conditions: MDA-MB-468, 48 h
[14] = Cytotoxicity against human LOXIMVI cells assessed as growth inhibition after 48 hrs by SRB assay; format: functional; conditions: LOX IMVI
[15] = tested on: SK-MEL-28; experiment: Cytotoxicity against human SK-MEL-28 cells assessed as growth inhibition after 48 hrs by SRB assay; format: functional; conditions: SK-MEL-28, 48 h
[16] = tested on: U-251; experiment: Cytotoxicity against human U251 cells assessed as growth inhibition after 48 hrs by SRB assay; format: functional; conditions: U-251, 48 h
[17] = Cytotoxicity against human UACC257 cells assessed as growth inhibition after 48 hrs by SRB assay; format: functional; conditions: UACC-257, 48 h
[18] = Cytotoxicity against human RPMI8226 cells assessed as growth inhibition after 48 hrs by SRB assay; format: functional; conditions: RPMI-8226, 48 h
[19] = tested on: A549; experiment: Cytotoxicity against human A549 cells assessed as growth inhibition after 48 hrs by SRB assay; format: functional; conditions: A549, 48 h
[20] = Cytotoxicity against human SF268 cells assessed as growth inhibition after 48 hrs by SRB assay; format: functional; conditions: SF-268, 48 h
[21] = tested on: SN12C; experiment: Cytotoxicity against human SN12C cells assessed as growth inhibition after 48 hrs by SRB assay; format: functional
[22] = tested on: NCI-H226; experiment: Cytotoxicity against human NCI-H226 cells assessed as growth inhibition after 48 hrs by SRB assay; format: functional; conditions: NCI-H226, 48 h
[23] = Cytotoxicity against human PC3 cells assessed as growth inhibition after 48 hrs by SRB assay; format: functional; conditions: PC-3, 48 h
[24] = tested on: K562; experiment: Cytotoxicity against human K562 cells assessed as growth inhibition after 48 hrs by SRB assay; format: functional; conditions: K562, 48 h
[25] = tested on: Malme-3M; experiment: Cytotoxicity against human MALME-3M cells assessed as growth inhibition after 48 hrs by SRB assay; format: functional
[26] = Cytotoxicity against human BT549 cells assessed as growth inhibition after 48 hrs by SRB assay; format: functional; conditions: BT-549, 48 h
[27] = tested on: MCF7; experiment: Antiproliferative activity against human MCF7 cells after 72 hrs by MTT assay; conditions: mcf7
[28] = Cytotoxicity against human Hs 578T cells assessed as growth inhibition after 48 hrs by SRB assay; format: functional
[29] = Cytotoxicity against human HCT15 cells assessed as growth inhibition after 48 hrs by SRB assay; format: functional; conditions: HCT-15, 48 h
[30] = Cytotoxicity against human COLO205 cells assessed as growth inhibition after 48 hrs by SRB assay; format: functional; conditions: COLO 205, 48 h
[31] = Cytotoxicity against human HCT116 cells assessed as growth inhibition after 48 hrs by SRB assay; format: functional; conditions: HCT-116, 48 h
[32] = Cytotoxicity against human TK10 cells assessed as growth inhibition after 48 hrs by SRB assay; format: functional; conditions: TK-10, 48 h
[33] = tested on: KM12; experiment: Cytotoxicity against human KM12 cells assessed as growth inhibition after 48 hrs by SRB assay; format: functional; conditions: KM12, 48 h
[34] = read-out: LC50 (the source's name)

CCCCCCCCCC(=O)Oc1ccc(/C(=C(/C)c2ccccc2)c2ccc(OCCN3CCCC3)cc2)cc1
GI50 [1]: 8.04 µM | TGI [1]: 15.7 µM | CC50 [1, 34]: 30.7 µM | GI50 [2]: 9.04 µM | TGI [2]: 17.7 µM | CC50 [2, 34]: 34.7 µM | LC50 [3]: 29.4 µM | TGI [3]: 13.5 µM | TGI [4]: 12.3 µM | CC50 [4, 34]: 27 µM | GI50 [5]: 7.93 µM | LC50 (concentration killing 50% of cells) [5]: 28.6 µM | TGI [5]: 15.1 µM | GI50 [6]: 7.01 µM | TGI [6]: 15.4 µM | CC50 [6, 34]: 33.8 µM | GI50 [7]: 8.77 µM | TGI [7]: 16.8 µM | CC50 [7, 34]: 32.2 µM | GI50 [8]: 8 µM | LC50 [8]: 27.5 µM | TGI [8]: 14.8 µM | GI50 [9]: 1020 nM | LC50 [9]: 39.9 µM | TGI [9]: 20.2 µM | GI50 [10]: 9.08 µM | TGI [10]: 19 µM | CC50 [10, 34]: 39.7 µM | GI50 [11]: 8.46 µM | TGI [11]: 15.9 µM | CC50 [11, 34]: 29.9 µM | GI50 [12]: 8.87 µM | TGI [12]: 19.5 µM | CC50 [12, 34]: 43.7 µM | GI50 [13]: 7.26 µM | TGI [13]: 14.7 µM | CC50 [13, 34]: 29.7 µM | GI50 [14]: 8.02 µM | LC50 (concentration killing 50% of cells) [14]: 27.2 µM | TGI [14]: 14.8 µM | LC50 (concentration killing 50% of starting cells) [15]: 28.6 µM | TGI [15]: 15.3 µM | GI50 [16]: 8.01 µM | LC50 (50% lethal concentration) [16]: 29.8 µM | TGI [16]: 15.4 µM | GI50 [17]: 9.23 µM | LC50 [17]: 30.6 µM | TGI [17]: 16.8 µM | GI50 [18]: 9.13 µM | LC50 [18]: 48.5 µM | TGI [18]: 21 µM | GI50 [19]: 9.35 µM | LC50 [19]: 33.4 µM | TGI [19]: 17.7 µM | GI50 [20]: 8.16 µM | LC50 [20]: 36.3 µM | TGI [20]: 17.2 µM | GI50 [21]: 9.15 µM | LC50 (concentration killing 50% of cells) [21]: 35.1 µM | TGI [21]: 17.9 µM | GI50 [22]: 9.42 µM | LC50 (50% lethal concentration) [22]: 36.4 µM | TGI [22]: 18.5 µM | GI50 [23]: 8.28 µM | LC50 [23]: 30 µM | TGI [23]: 15.7 µM | LC50 [24]: 36.2 µM | TGI [24]: 16.2 µM | GI50 [25]: 7.76 µM | TGI [25]: 15.7 µM | CC50 [25, 34]: 31.9 µM | GI50 [26]: 8.22 µM | TGI [26]: 16.8 µM | CC50 [26, 34]: 34.5 µM | IC50 [27]: < 1000 nM | GI50 [28]: 9.55 µM | TGI [28]: 32.2 µM | CC50 [28, 34]: > 50 µM | GI50 [29]: 6.69 µM | LC50 (concentration killing 50% of cells) [29]: 25.6 µM | TGI [29]: 13.1 µM | TGI [30]: 14.7 µM | CC50 [30, 34]: 29.1 µM | GI50 [31]: 8.01 µM | LC50 [31]: 30.6 µM | TGI [31]: 15.7 µM | GI50 [32]: 8.86 µM | LC50 [32]: 31.3 µM | TGI [32]: 16.7 µM | GI50 [33]: 8.79 µM | LC50 (concentration giving 50% net cell kill) [33]: 31.7 µM | TGI [33]: 16.7 µM
